Experimental data from patent US5582832A, “Compositions for topical application to skin” (priority 1995, dated 1996).

Experiments:
Type in all cases: cell-based, human
[1] = system: keratinocytes; assay: Rate of DNA synthesis (3H-thymidine incorporation) in keratinocytes; details: for DNA synthesis, % of control (100 nM 1,25D + 5 uM ceramide Formula A) / DNA synthesis, % of control (azole, only 100 nM 1,25D): Table 4; for DNA synthesis, % of control (100 nM 1,25D + 5 uM ceramide Formula A): 10 uM azole (or no azole) + 100 nM 1,25D + 5 uM ceramide Formula A; for DNA synthesis, % of control (100 nM 1,25D + 5 uM ceramide Formula A) / DNA synthesis / DNA synthesis, % of control (azole, only 100 nM 1,25D): mean + SD; for DNA synthesis, % of control (100 nM 1,25D + 5 uM ceramide Formula A) / keratinocyte DNA synthesis, % of the corresponding controls (10 uM Econazole) / keratinocyte DNA synthesis, % of the corresponding controls (no azole): * = synergistic effect; for keratinocyte DNA synthesis, % of the corresponding controls (1 uM Econazole) / keratinocyte DNA synthesis, % of the corresponding controls (10 uM Econazole) / keratinocyte DNA synthesis, % of the corresponding controls (no azole): Table 5; for keratinocyte DNA synthesis, % of the corresponding controls (1 uM Econazole): 1 uM ceramide + 1 uM Econazole; for keratinocyte DNA synthesis, % of the corresponding controls (1 uM Econazole) / keratinocyte DNA synthesis, % of the corresponding controls (10 uM Econazole) / keratinocyte DNA synthesis, % of the corresponding controls (no azole) / DNA synthesis (% control) / DNA synthesis / DNA synthesis, % of control (azole, only 100 nM 1,25D): 100 nM 1,25D; for keratinocyte DNA synthesis, % of the corresponding controls (10 uM Econazole): 1 uM ceramide + 10 uM Econazole; for keratinocyte DNA synthesis, % of the corresponding controls (no azole): 1 uM ceramide; for DNA synthesis, % of control (azole, only 100 nM 1,25D): 10 uM azole, no ceramide
Protocol: (§1) 1. Normal human keratinocytes isolated from neonatal foreskins by trypsin treatment were grown in DME medium/10% fetal calf serum in the presence of irradiated 3T3 mouse fibroblasts for establishing dividing keratinocyte colonies. Keratinocytes were grown under the above condition until their third passage.
2. For the experiments, third passage keratinocytes were plated into a serum-free keratinocyte growth medium (KSFM; obtained from Life Technologies, Grand Island, N.Y.) containing 0.09 mM calcium. 20,000 to 30,000 cells were plated into each well of 24 well cell culture plates and grown for 5 days, until the cells reach about 80% confluence.
3. Medium was changed to fresh medium and the various test materials were added to the medium from an ethanolic stock solution (10:00 AM). The final ethanol concentration in the cultures was kept below 0.2%. Control cultures received no tested material but were dosed with 0.2% ethanol. Each compound or combination was tested in three separate wells. By 4:00 PM, 1 uCi of ^3 H-thymidine (Amersham Corp., Sp activity 40 Ci/mmol) was added to the 1 ml medium in each well. The cells were incubated overnight and […] (10:00 AM next day) the amount of ^3 -thymidine associated with the cellular DNA of keratinocytes was assessed as described below.
4. The medium was aspirated, and the wells washed with 1 ml phosphate-buffered saline. The DNA and proteins of the cells in the plate were then precipitated by adding 1 ml of ice-cold 10% trichloroacetic acid (TCA). The plates were left on ice for 30 minutes to complete the precipitation process. TCA was then aspirated and each well was then washed four times with 5% TCA. The plates were then dried on a filter pad and the cells in the wells were dissolved in 0.5 ml of 0.1N sodium hydroxide. The sodium hydroxide was then neutralized using 0.1N hydrochloric acid and the solution (1 ml total volume) was then transferred to a scintillation vial. 50 μl samples from each vial were used for protein assay using BCA protein assay reagent obtained from Pierce Chemical Company. 8 ml of a scintillation fluid (Ecolume) was added to the rest of the solution in the vial, and the vials were counted in a scintillation counter to determine the amount of radioactivity in each vial. The DNA synthesis rate was then calculated as cpm ^3 H thymidine incorporated into total cellular DNA/microgram of cell protein for each individual well. Mean and standard deviation for each group was also calculated.
Rationale for using 1,25D is that in in vivo situation, these azoles will inhibit the endogenous degradation of the 1,25D which is obtained from the circulation. Azoles will act in keratinocytes to increase the endogenous levels of 1,25D within cells. Keratinocytes (70% confluent) were incubated with 10 uM of the different azoles in the presence of 100 nM 1,25D. One of the groups was treated with 5 uM of ceramide of Formula A in the medium. After four hours, all the wells were treated with 1 uCi ^3 H-thymidine and the rate of DNA synthesis was estimated as described in the methods.
Keratinocytes were incubated with 1 or 10 uM of Econazole in the presence of 1 uM of the different ceramide analogues and 100 nM 1,25D in the medium. Thymidine incorporation was measured with an overnight incubation as described in Example 2.

[2] = system: 1,25D degradation (vitamin D metabolism in keratinocytes); assay: Vitamin D metabolism in keratinocytes: 1,25D degradation; details: for blocking of 1,25D degradation (in words) / 1,25D degradation (%): 1 uM; for blocking of 1,25D degradation (in words): 20 hours (Table 2); for % degradation (1,25D): Table 1; for 1,25D degradation (%): Table 2, 20 hour incubation, mean of duplicate (range); for 1,25D (% degradation): Table 3, 10 uM
Protocol: as §1
(§2) 80% confluent keratinocytes were incubated with 0.05 uCi of ^3 H-25D or ^3 H-1,25D for two hours or 20 hours in the presence of 1-100 uM of the different compounds. Reaction was stopped by addition of methanol and the cells and medium were extracted using chloroform:methanol. The chloroform layer was separated, dried and spotted on TLC plates. […] The amount of radioactivity in each lane was quantitated using the BioScan radioactive plate reader. The amount of radioactivity remaining in the peak area of 25D and 1,25D were calculated as % of control. The % remaining was subtracted from 100 to get the % degradation of the metabolites.
(§3) The data are expressed as mean of % degradation of 25D or 1,25D. The range is also given in parenthesis.

[3] = system: 25D degradation (vitamin D metabolism in keratinocytes); assay: Vitamin D metabolism in keratinocytes: 25D degradation; details: for blocking of 25D degradation (in words) / 25D degradation (%): 1 uM; for blocking of 25D degradation (in words): 20 hours (Table 2); for % degradation (25D): Table 1; for 25D degradation (%): Table 2, 20 hour incubation, mean of duplicate (range); for 25D (% degradation): Table 3, 10 uM
Protocol: as §1, §2, §3

[4] = Tables 4A-4F, azole 10 uM, ceramide Formula A 5 uM
[5] = Tables 5A-5I, Econazole 10 uM, ceramide analogue 1 uM
[6] = Tables 4A-4F, azole 10 uM, 1440 min

CCCCCCCCCCCCC/C=C/C(O)C(CO)NC(C)=O (stereo not drawn) [Formula A]
DNA synthesis, % of control (100 nM 1,25D + 5 uM ceramide Formula A) ([1]; 1440 min): 81.1 + 16.5 % of control
keratinocyte DNA synthesis, % of the corresponding controls (1 uM Econazole) [1]: 75.9 + 23.3%
keratinocyte DNA synthesis, % of the corresponding controls (10 uM Econazole) [1]: 38.2 + 13.9%
keratinocyte DNA synthesis, % of the corresponding controls (no azole) [1]: 97 + 32%
DNA synthesis (% control) ([1]; Tables 4A-4F, azole 10 uM, ceramide Formula A 5 uM, 1440 min): 74.14 % control
DNA synthesis [1, 4]: 108753 + 24719 cpm 3H thymidine incorporated
DNA synthesis (% control) [1, 5]: 97.7 % control
DNA synthesis [1, 5]: 29272 + 11126 cpm 3H thymidine incorporated

Clc1ccc(COC(Cn2ccnc2)c2ccc(Cl)cc2Cl)c(Cl)c1 (stereo not drawn) [Miconazole]
DNA synthesis, % of control (100 nM 1,25D + 5 uM ceramide Formula A) ([1]; 1440 min): 17.5 + 3.3 % of control
DNA synthesis, % of control (azole, only 100 nM 1,25D) ([1]; 1440 min): 42.8 + 1.8 % of control
DNA synthesis [1, 4]: 62806 + 2649 cpm 3H thymidine incorporated
DNA synthesis (% control) [1, 6]: 42.8 % control
blocking of 1,25D degradation (in words) [2]: did not block 1,25D degradation
% degradation (1,25D) ([2]; 10 uM compound): 70%
1,25D degradation (%) [2]: 75.8 (69.9-81.8) %
blocking of 25D degradation (in words) [3]: effective with 25D
% degradation (25D) ([3]; 10 uM compound): 54%
25D degradation (%) [3]: 38.7 (35.4-42.0) %

CCCCCCCCCCCCC/C=C/C(O)C(CO)NC(=O)CCCCC (stereo not drawn) [Formula B]
keratinocyte DNA synthesis, % of the corresponding controls (1 uM Econazole) [1]: 123.9 + 30.3%
keratinocyte DNA synthesis, % of the corresponding controls (10 uM Econazole) [1]: 61.7 + 17%
keratinocyte DNA synthesis, % of the corresponding controls (no azole) [1]: 126.6 ± 17.8%
DNA synthesis (% control) [1, 5]: 126 % control
DNA synthesis [1, 5]: 37927 + 6562 cpm 3H thymidine incorporated

CCCCCCCCCCCCN(CC(O)CO)C(=O)C(O)CCCCCC (stereo not drawn) [Formula K]
keratinocyte DNA synthesis, % of the corresponding controls (1 uM Econazole) [1]: 82.9 + 16.9%
keratinocyte DNA synthesis, % of the corresponding controls (10 uM Econazole) [1]: 38.7 + 14.8%
keratinocyte DNA synthesis, % of the corresponding controls (no azole) [1]: 100.2 ± 9.6%
DNA synthesis (% control) [1, 5]: 80 % control
DNA synthesis [1, 5]: 23958 + 5660 cpm 3H thymidine incorporated

CC1=CC(=O)c2ccccc2C1=O [menadione (vitamin K1), menadione]
% degradation (1,25D) ([2]; 100 uM compound): 93%
% degradation (25D) ([3]; 100 uM compound): 89%

Clc1ccccc1C(c1ccccc1)(c1ccccc1)n1ccnc1 [Clotrimazole]
DNA synthesis, % of control (100 nM 1,25D + 5 uM ceramide Formula A) ([1]; 1440 min): 19.5 + 0.77 % of control
DNA synthesis, % of control (azole, only 100 nM 1,25D) ([1]; 1440 min): 35.2 + 6.5 % of control
DNA synthesis [1, 4]: 51610 + 6735 cpm 3H thymidine incorporated
DNA synthesis (% control) [1, 6]: 35.2 % control
blocking of 1,25D degradation (in words) [2]: very effective
blocking of 1,25D metabolism (in words) ([2]; 2 hours): ineffective
blocking of 1,25D metabolism (in words) ([2]; 20 hours): very effective
% degradation (1,25D) ([2]; 10 uM compound): 2%
1,25D degradation (%) [2]: 29.5 (21.8-37.2) %
1,25D (% degradation) ([2]; 2 hours): 77%
1,25D (% degradation) ([2]; 20 hours): 2%
inhibition of 1,25D metabolism (in words) ([2]; results of Table 1): most potent
blocking of 25D degradation (in words) [3]: very effective
blocking of 25D metabolism (in words) ([3]; 2 hours): ineffective
blocking of 25D metabolism (in words) ([3]; 20 hours): very effective
% degradation (25D) ([3]; 10 uM compound): 5%
25D degradation (%) [3]: 47.4 (42.6-52.2) %
25D (% degradation) ([3]; 2 hours): 79%
25D (% degradation) ([3]; 20 hours): 5%
inhibition of 25D metabolism (in words) ([3]; results of Table 1): most potent

CCCCCCCCCCCCCCCCOCC(O)CN(CCO)C(C)=O (stereo not drawn) [Formula E]
keratinocyte DNA synthesis, % of the corresponding controls (1 uM Econazole) [1]: 99.8 + 19.1%
keratinocyte DNA synthesis, % of the corresponding controls (10 uM Econazole) [1]: 20.5 + 12.9%
keratinocyte DNA synthesis, % of the corresponding controls (no azole) [1]: 104.3 ± 17.7%
DNA synthesis (% control) [1, 5]: 104.4 % control
DNA synthesis [1, 5]: 31267 + 6143 cpm 3H thymidine incorporated

N[C@@H](Cc1c[nH]c2ccccc12)C(=O)O [L-Tryptophan]
% degradation (1,25D) ([2]; 100 uM compound): 100%
% degradation (25D) ([3]; 100 uM compound): 83%
